Laboratory results: the supplement of paper PMC10307832

Legend:
Assay in all cases: relative viability (nuclei count vs DMSO), 5 days (fraction); higher = more cells survive
[1] = system: NCI-H2087
In short: (§1)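 After 5 days of treatment, lung cancer cells in 1536-well plates were fixed and stained in a single step (final 0.05% Triton X-100, 1% formaldehyde, 1 ug/ml Hoechst) and their nuclei counted on 4× images. Treatment had been applied by pin tool the day after seeding as one drug alone or as a fixed anchor-drug dose with five library-drug doses (not always all listed) in √10 steps. Relative viability is the nuclei count of treated wells divided by that of vehicle wells, and values are medians of duplicate plates.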

[2] = system: NCI-H2126
In short: as §1

[3] = system: NCI-H2347
In short: as §1

[4] = system: NCI-H23
In short: as §1

[5] = system: NCI-H3122
In short: as §1

[6] = system: NCI-H441
In short: as §1

[7] = system: NCI-H522
In short: as §1

[8] = system: NCI-H647
In short: as §1

[9] = system: NCI-H650
In short: as §1

[10] = system: NCI-H727
In short: as §1

[11] = system: NCI-H838
In short: as §1

COc1cc2nccc(Oc3ccc(NC(=O)Nc4cc(C)on4)c(Cl)c3)c2cc1OC [Tivozanib] + CC(=O)c1c(C)c2cnc(Nc3ccc(N4CCNCC4)cn3)nc2n(C2CCCC2)c1=O [Palbociclib] (partner 0.5 µM)
relative viability ([1]; first compound 0.05 µM): 0.259 | relative viability ([1]; first compound 0.1581 µM): 0.231 | relative viability ([1]; first compound 0.5 µM): 0.231 | relative viability ([2]; first compound 0.005 µM): 0.384 | relative viability ([2]; first compound 0.01581 µM): 0.345 | relative viability ([2]; first compound 0.05 µM): 0.352 | relative viability ([2]; first compound 0.1581 µM): 0.337 | relative viability ([2]; first compound 0.5 µM): 0.371 | relative viability ([3]; first compound 0.005 µM): 0.48 | relative viability ([3]; first compound 0.01581 µM): 0.424 | relative viability ([3]; first compound 0.05 µM): 0.462 | relative viability ([3]; first compound 0.1581 µM): 0.478 | relative viability ([3]; first compound 0.5 µM): 0.422 | relative viability ([4]; first compound 0.005 µM): 0.459 | relative viability ([4]; first compound 0.01581 µM): 0.569 | relative viability ([4]; first compound 0.05 µM): 0.488 | relative viability ([4]; first compound 0.5 µM): 0.497 | relative viability ([5]; first compound 0.005 µM): 0.164 | relative viability ([5]; first compound 0.01581 µM): 0.207 | relative viability ([5]; first compound 0.05 µM): 0.187 | relative viability ([5]; first compound 0.1581 µM): 0.212 | relative viability ([5]; first compound 0.5 µM): 0.184 | relative viability ([6]; first compound 0.005 µM): 0.214 | relative viability ([6]; first compound 0.01581 µM): 0.262 | relative viability ([6]; first compound 0.05 µM): 0.248 | relative viability ([6]; first compound 0.1581 µM): 0.216 | relative viability ([6]; first compound 0.5 µM): 0.207 | relative viability ([7]; first compound 0.005 µM): 1 | relative viability ([7]; first compound 0.01581 µM): 0.849 | relative viability ([7]; first compound 0.05 µM): 0.889 | relative viability ([7]; first compound 0.1581 µM): 0.894 | relative viability ([7]; first compound 0.5 µM): 1.21 | relative viability ([8]; first compound 0.005 µM): 0.396 | relative viability ([8]; first compound 0.01581 µM): 0.391 | relative viability ([8]; first compound 0.05 µM): 0.3 | relative viability ([8]; first compound 0.1581 µM): 0.32 | relative viability ([8]; first compound 0.5 µM): 0.35 | relative viability ([9]; first compound 0.005 µM): 0.297 | relative viability ([9]; first compound 0.01581 µM): 0.391 | relative viability ([9]; first compound 0.05 µM): 0.338 | relative viability ([9]; first compound 0.1581 µM): 0.377 | relative viability ([9]; first compound 0.5 µM): 0.27 | relative viability ([10]; first compound 0.005 µM): 0.659 | relative viability ([10]; first compound 0.01581 µM): 0.659 | relative viability ([10]; first compound 0.05 µM): 0.574 | relative viability ([10]; first compound 0.1581 µM): 0.637 | relative viability ([10]; first compound 0.5 µM): 0.7 | relative viability ([11]; first compound 0.005 µM): 0.227 | relative viability ([11]; first compound 0.01581 µM): 0.227 | relative viability ([11]; first compound 0.05 µM): 0.211 | relative viability ([11]; first compound 0.1581 µM): 0.2 | relative viability ([11]; first compound 0.5 µM): 0.229
